Series [1] deals with MOLM-14 cells. The series can be described thus: ROS production. In kind it is cell-based. Particulars: approximately 2 hours post-treatment.
In the next series the test system is THP-1 cells. Kind of series: ROS production. The note with it: approximately 2 hours post-treatment. In kind it is cell-based.
Series [2] relates to MOLM-14 cells. The series can be described thus: Double strand DNA breaks, γ-H2Ax immunofluorescence. In kind it is cell-based. The note with it: 24 hours exposure, 200 nM, 1.0 and 2.0 µM.
The next series concerns female NSG mice. The series can be described thus: Safety and tolerability in NSG mice. In kind it is in vivo.

The structures appear in SMILES notation.

As to `O=C1C(C2=C(N3CC3)C(=O)c3ccccc3C2=O)=C(N2CC2)C(=O)c2ccccc21` [Compound 3, 3,3'-Di(aziridin-1-yl)-[2,2'-binaphthalene]-1,1',4,4'-tetraone], the “ROS production (RFU)” value in the series on MOLM-14 cells [1] and with THP-1 cells was “dose-dependent increase in ROS production” each time. In addition, the “γ-H2Ax phosphorylation (double strand DNA breaks)” value in the series on MOLM-14 cells [2] was “substantial γ-H2Ax phosphorylation”. In addition, the tolerability entry with female NSG mice (5, 10 and 15 mg/kg IP for 5 consecutive days, one week observation) was “tolerated the compound well”. Besides, in the series on female NSG mice (mouse, in vivo, ip), the “mean body weight loss” value is listed as no more than 10%.

The record behind these values is publication PMC5654471 (Bioorganic & medicinal chemistry letters, 2016).
